Key:
[1] = tested on: Methicillin Resistant Staphylococcus aureus strain USA 200; assay: Minimum inhibitory concentration (MIC), CLSI broth micro-dilution, S. aureus; format: cell-based; conditions: Staphylococcus aureus, MRSA / USA200; Table 6; MRSA USA 200; cation adjusted Mueller Hinton Broth + 0.002% Tween-80; 35° C., 22 hours
In short: (§1)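 Antibacterial potency is measured as MIC by the CLSI broth dilution method. Bacteria at OD600 0.0005 in Tween-80-supplemented cation-adjusted Mueller Hinton broth face ten twofold compound dilutions for 22 h at 35° C.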

[2] = tested on: Escherichia coli ATCC 25922; assay: Minimum inhibitory concentration (MIC), CLSI broth micro-dilution, E. coli; format: cell-based; conditions: Escherichia coli, ATCC25922, 22 h, Table 6, cation adjusted Mueller Hinton Broth + 0.002% Tween-80, 35° C.
In short: as §1

MIC [1] [µM]	MIC [2] [µM]	SMILES
0.067	1.1	Cc1nc(-c2cccc(OC(C)C)c2)ncc1C(=O)N[C@@H](CCN)C(=O)N(C)[C@@H]1C(=O)N[C@@H](C)C(=O)N[C@H](C(=O)NCC#N)Cc2ccc(OCCN)c(c2)-c2cc1ccc2OCCN (racemic) [Compound 251, rac-(8S,11S,14S)-3,18-bis(2-aminoethoxy)-N-(cyanomethyl)-11-methyl-14-[methyl-[rac-(2S)-4-amino-2-[[2-(3-isopropoxyphenyl)-4-methyl-pyrimidine-5-carbonyl]amino]butanoyl]amino]-10,13-dioxo-9,12-diazatricyclo[13.3.1.12,6]icosa-1(18),2(20),3,5,15(19),16-hexaene-8-carboxamide]
0.012	0.14	Cc1nc(-c2ccc(C(C)(C)C)cc2)nc(C)c1C(=O)N[C@@H](CCN)C(=O)N(C)[C@@H]1C(=O)N[C@@H](C)C(=O)N[C@H](C(=O)NCC#N)Cc2ccc(OCCN)c(c2)-c2cc1ccc2OCCN (racemic) [Compound 253, rac-(8S,11S,14S)-3,18-bis(2-aminoethoxy)-N-(cyanomethyl)-11-methyl-14-[methyl-[rac-(2S)-4-amino-2-[[2-(4-tert-butylphenyl)-4,6-dimethyl-pyrimidine-5-carbonyl]amino]butanoyl]amino]-10,13-dioxo-9,12-diazatricyclo[13.3.1.12,6]icosa-1(18),2(20),3,5,15(19),16-hexaene-8-carboxamide]
0.061	0.24	Cc1nc(-c2ccc(C(C)(C)C)cc2)nc(C)c1C(=O)N[C@@H](CCN)C(=O)N(C)[C@@H]1C(=O)N[C@@H](C)C(=O)N[C@H](C(=O)NCC#N)Cc2ccc(O)c(c2)-c2cc1ccc2OCCN (racemic) [Compound 254, rac-(8S,11S,14S)-18-(2-aminoethoxy)-N-(cyanomethyl)-3-hydroxy-11-methyl-14-[methyl-[rac-(2S)-4-amino-2-[[2-(4-tert-butylphenyl)-4,6-dimethyl-pyrimidine-5-carbonyl]amino]butanoyl]amino]-10,13-dioxo-9,12-diazatricyclo[13.3.1.12,6]icosa-1(18),2(20),3,5,15(19),16-hexaene-8-carboxamide]
0.0082	0.066	CCCCc1ccc(-c2nc(C)c(C(=O)N[C@@H](CCN)C(=O)N(C)[C@@H]3C(=O)N[C@@H](C)C(=O)N[C@H](C(=O)NCC#N)Cc4ccc(OCCN)c(c4)-c4cc3ccc4OCCN)c(C)n2)cc1 (racemic) [Compound 255, rac-(8S,11S,14S)-3,18-bis(2-aminoethoxy)-N-(cyanomethyl)-11-methyl-14-[methyl-[rac-(2S)-4-amino-2-[[2-(4-butylphenyl)-4,6-dimethyl-pyrimidine-5-carbonyl]amino]butanoyl]amino]-10,13-dioxo-9,12-diazatricyclo[13.3.1.12,6]icosa-1(18),2(20),3,5,15(19),16-hexaene-8-carboxamide]
0.012	0.13	Cc1nc(-c2ccc(CC(C)C)cc2)nc(C)c1C(=O)N[C@@H](CCN)C(=O)N(C)[C@@H]1C(=O)N[C@@H](C)C(=O)N[C@H](C(=O)NCC#N)Cc2ccc(OCCN)c(c2)-c2cc1ccc2OCCN (racemic) [Compound 258, rac-(8S,11S,14S)-3,18-bis(2-aminoethoxy)-N-(cyanomethyl)-11-methyl-14-[methyl-[rac-(2S)-4-amino-2-[[2-(4-isobutylphenyl)-4,6-dimethyl-pyrimidine-5-carbonyl]amino]butanoyl]amino]-10,13-dioxo-9,12-diazatricyclo[13.3.1.12,6]icosa-1(18),2(20),3,5,15(19),16-hexaene-8-carboxamide]
0.025	0.26	Cc1nc(-c2ccc3c(c2)CCCC3)nc(C)c1C(=O)N[C@@H](CCN)C(=O)N(C)[C@@H]1C(=O)N[C@@H](C)C(=O)N[C@H](C(=O)NCC#N)Cc2ccc(OCCN)c(c2)-c2cc1ccc2OCCN (racemic) [Compound 259, rac-(8S,11S,14S)-3,18-bis(2-aminoethoxy)-N-(cyanomethyl)-11-methyl-14-[methyl-[rac-(2S)-4-amino-2-[(4,6-dimethyl-2-tetralin-6-yl-pyrimidine-5-carbonyl)amino]butanoyl]amino]-10,13-dioxo-9,12-diazatricyclo[13.3.1.12,6]icosa-1(18),2(20),3,5,15(19),16-hexaene-8-carboxamide]
0.079	0.45	CCc1ccc(-c2nc(C)c(C(=O)N[C@@H](CCN)C(=O)N(C)[C@@H]3C(=O)N[C@@H](C)C(=O)N[C@H](C(=O)NCC#N)Cc4ccc(OCCN)c(c4)-c4cc3ccc4OCCN)c(C)n2)cc1 (racemic) [Compound 260, rac-(8S,11S,14S)-3,18-bis(2-aminoethoxy)-N-(cyanomethyl)-11-methyl-14-[methyl-[rac-(2S)-4-amino-2-[[2-(4-ethylphenyl)-4,6-dimethyl-pyrimidine-5-carbonyl]amino]butanoyl]amino]-10,13-dioxo-9,12-diazatricyclo[13.3.1.12,6]icosa-1(18),2(20),3,5,15(19),16-hexaene-8-carboxamide]
0.014	0.1	CCC(C)(C)c1ccc(-c2nc(C)c(C(=O)N[C@@H](CCN)C(=O)N(C)[C@@H]3C(=O)N[C@@H](C)C(=O)N[C@H](C(=O)NCC#N)Cc4ccc(OCCN)c(c4)-c4cc3ccc4OCCN)c(C)n2)cc1 (racemic) [Compound 261, rac-(8S,11S,14S)-3,18-bis(2-aminoethoxy)-N-(cyanomethyl)-11-methyl-14-[methyl-[rac-(2S)-4-amino-2-[[2-[4-(1,1-dimethylpropyl)phenyl]-4,6-dimethyl-pyrimidine-5-carbonyl]amino]butanoyl]amino]-10,13-dioxo-9,12-diazatricyclo[13.3.1.12,6]icosa-1(18),2(20),3,5,15(19),16-hexaene-8-carboxamide]
0.0081	0.097	Cc1nc(-c2ccc(CCC(C)C)cc2)nc(C)c1C(=O)N[C@@H](CCN)C(=O)N(C)[C@@H]1C(=O)N[C@@H](C)C(=O)N[C@H](C(=O)NCC#N)Cc2ccc(OCCN)c(c2)-c2cc1ccc2OCCN (racemic) [Compound 262, rac-(8S,11S,14S)-3,18-bis(2-aminoethoxy)-N-(cyanomethyl)-11-methyl-14-[methyl-[rac-(2S)-4-amino-2-[[2-(4-isopentylphenyl)-4,6-dimethyl-pyrimidine-5-carbonyl]amino]butanoyl]amino]-10,13-dioxo-9,12-diazatricyclo[13.3.1.12,6]icosa-1(18),2(20),3,5,15(19),16-hexaene-8-carboxamide]
0.016	0.53	Cc1nc(-c2cccc(C(C)(C)C)c2)nc(C)c1C(=O)N[C@@H](CCN)C(=O)N(C)[C@@H]1C(=O)N[C@@H](C)C(=O)N[C@H](C(=O)NCC#N)Cc2ccc(OCCN)c(c2)-c2cc1ccc2OCCN (racemic) [Compound 263, rac-(8S,11S,14S)-3,18-bis(2-aminoethoxy)-N-(cyanomethyl)-11-methyl-14-[methyl-[rac-(2S)-4-amino-2-[[2-(3-tert-butylphenyl)-4,6-dimethyl-pyrimidine-5-carbonyl]amino]butanoyl]amino]-10,13-dioxo-9,12-diazatricyclo[13.3.1.12,6]icosa-1(18),2(20),3,5,15(19),16-hexaene-8-carboxamide]
0.068	0.41	C=Cc1ccc(-c2nc(C)c(C(=O)N[C@@H](CCN)C(=O)N(C)[C@@H]3C(=O)N[C@@H](C)C(=O)N[C@H](C(=O)NCC#N)Cc4ccc(OCCN)c(c4)-c4cc3ccc4OCCN)c(C)n2)cc1 (racemic) [Compound 265, rac-(8S,11S,14S)-3,18-bis(2-aminoethoxy)-N-(cyanomethyl)-11-methyl-14-[methyl-[rac-(2S)-4-amino-2-[[4,6-dimethyl-2-(4-vinylphenyl)pyrimidine-5-carbonyl]amino]butanoyl]amino]-10,13-dioxo-9,12-diazatricyclo[13.3.1.12,6]icosa-1(18),2(20),3,5,15(19),16-hexaene-8-carboxamide]
0.39	1	COC(C)(C)c1ccc(-c2nc(C)c(C(=O)N[C@@H](CCN)C(=O)N(C)[C@@H]3C(=O)N[C@@H](C)C(=O)N[C@H](C(=O)NCC#N)Cc4ccc(OCCN)c(c4)-c4cc3ccc4OCCN)c(C)n2)cc1 (racemic) [Compound 267, rac-(8S,11S,14S)-3,18-bis(2-aminoethoxy)-N-(cyanomethyl)-11-methyl-14-[methyl-[rac-(2S)-4-amino-2-[[2-[4-(1-methoxy-1-methyl-ethyl)phenyl]-4,6-dimethyl-pyrimidine-5-carbonyl]amino]butanoyl]amino]-10,13-dioxo-9,12-diazatricyclo[13.3.1.12,6]icosa-1(18),2(20),3,5,15(19),16-hexaene-8-carboxamide]
0.016	0.12	CCCCc1ccc(-c2nc(C)c(C(=O)N[C@@H](CCN)C(=O)N(C)[C@@H]3C(=O)N[C@@H](C)C(=O)N[C@H](C(=O)NCC#N)Cc4ccc(OCCN)c(c4)-c4cc3ccc4OCCN)c(C)n2)cc1CCCC (racemic) [Compound 268, rac-(8S,11S,14S)-3,18-bis(2-aminoethoxy)-N-(cyanomethyl)-11-methyl-14-[methyl-[rac-(2S)-4-amino-2-[[2-(3,4-dibutylphenyl)-4,6-dimethyl-pyrimidine-5-carbonyl]amino]butanoyl]amino]-10,13-dioxo-9,12-diazatricyclo[13.3.1.12,6]icosa-1(18),2(20),3,5,15(19),16-hexaene-8-carboxamide]

Source: patent US20260274892A1, “MACROCYCLIC BROAD SPECTRUM ANTIBIOTICS” (RQx Pharmaceuticals, Inc., priority 2017, published 2026)
